Counter-ions that a name gives are not always drawn.
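Further: binary label assigned from drug-induced liver injury observed in pharmaceutical company records, forming the validation set for the DILIps prediction system.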

In one series the test system is Hepatotoxicity.
Conditions: not given
Turning to `C=C1CC[C@H](O)C/C1=C/C=C1\CCC[C@]2(C)[C@@H]([C@H](C)CCCC(C)(C)O)CC[C@@H]12.O` [CALCIFEDIOL], the DILI positive/negative amounted to 1. The same measure, in the same setting: next, BISMUTH SUBSALICYLATE: 0; `COc1cccc(OC)c1C(=O)N[C@@H]1C(=O)N2[C@@H]1SC(C)(C)[C@@H]2C(=O)[O-].[Na+]`: 1. On to `CN1C(=O)OC(C)(C)C1=O` [TRIMETHADIONE], for which the DILI positive/negative is listed as 1. For `O=C1O[C@H]([C@@H](O)CO)C(O)=C1O` [ASCORBIC ACID], the DILI positive/negative is on record as 0.

`CCN1CCN(C(=O)N[C@@H](C(=O)N[C@@H]2C(=O)N3C(C(=O)O)=C(CSc4nnnn4C)CS[C@H]23)c2ccc(O)cc2)C(=O)C1=O.O.O` [CEFOPERAZONE DIHYDRATE] came in with a DILI positive/negative of 0.

The molecule `COc1cc(CNC(=O)CCCC/C=C/C(C)C)ccc1O` [CAPSAICIN] registered a DILI positive/negative of 0. In the case of `CN(C)CCN(Cc1ccccc1)c1ccccn1.Cl` [TRIPELENNAMINE HYDROCHLORIDE], the DILI positive/negative worked out at 1. Same read-out and setting: under `C=CCOC=O` [ALLYL FORMATE] stands 1; under LACTOSE, ANHYDROUS, 0. As to `CN1CCN(C(c2ccccc2)c2ccccc2)CC1` [CYCLIZINE], the DILI positive/negative came out at 1. The molecule `C=C1CC[C@@]2(O)[C@H]3Cc4ccc(O)c5c4[C@@]2(CCN3CC2CC2)[C@H]1O5` returned a DILI positive/negative of 0. Regarding `Nc1ccc(S(=O)(=O)NC(=O)c2ccccc2)cc1` [SULFABENZAMIDE], the DILI positive/negative was determined as 0. Same read-out and setting: under `c1ccc2c(c1)Nc1ccccc1S2` [PHENOTHIAZINE] stands 1; under `CCC1(c2ccccc2)C(=O)NC(=O)N(C)C1=O` (configuration not stated) [MEPHOBARBITAL], 1; under `CCSCC[C@H](N)C(=O)O` [ETHIONINE], 1. As to `Cc1onc(-c2ccccc2Cl)c1C(=O)N[C@@H]1C(=O)N2[C@@H]1SC(C)(C)[C@@H]2C(=O)[O-].O.[Na+]` [CLOXACILLIN SODIUM], the DILI positive/negative turned out to be 1. Still for that read-out and setting: next, `CCN(CC)CCNc1ccc(CO)c2sc3ccccc3c(=O)c12` [HYCANTHONE]: 1; `CN(C)CCn1nnnc1SCC1=C(C(=O)O)N2C(=O)[C@@H](NC(=O)Cc3csc(N)n3)[C@H]2SC1.Cl.Cl` [CEFOTIAM HYDROCHLORIDE]: 1. In turn, `C=C1c2cccc(O)c2C(=O)C2=C(O)[C@]3(O)C(=O)C(C(N)=O)=C(O)[C@@H](N(C)C)[C@@H]3[C@@H](O)[C@H]12.Cl` [METHACYCLINE HYDROCHLORIDE] gave a DILI positive/negative of 1. In turn, `CC1(c2ccccc2)Cc2cc(OCC(=O)O)c(Cl)c(Cl)c2C1=O` (configuration not stated) [INDACRINONE] yielded a DILI positive/negative of 1. Consider `Cc1ccc2cc3c(ccc4ccccc43)c3c2c1CC3` [3-METHYLCHOLANTHRENE], for which the DILI positive/negative was determined as 1. As for `C[C@@H](CO)NC(=O)[C@@H]1C=C2c3cccc4[nH]cc(c34)C[C@H]2N(C)C1.O=C(O)/C=C\C(=O)O` [ERGONOVINE MALEATE], the DILI positive/negative was 0. Molecule `CC(=O)OCC1=C(C(=O)[O-])N2C(=O)[C@@H](NC(=O)CSc3ccncc3)[C@H]2SC1.[Na+]` [CEPHAPIRIN SODIUM] had a DILI positive/negative of 0. The molecule `CC1CN(c2cc3c(cc2F)c(=O)c(C(=O)O)cn3-c2ccc(F)cc2F)CCN1` (configuration not stated) [TEMAFLOXACIN] returned a DILI positive/negative of 1.

For the molecule `N[C@@H](Cc1ccc(O)c(O)c1)C(=O)O` [LEVODOPA], the DILI positive/negative came to 0. In the case of `Nc1ncnc2c1ncn2[C@@H]1O[C@H](CO)[C@@H](O)[C@@H]1O` [VIDARABINE], the DILI positive/negative is 0. In the case of `Oc1c(Cl)cc(Cl)cc1Sc1cc(Cl)cc(Cl)c1O` [BITHIONOL], the DILI positive/negative was found to be 1.

Consider `CCCCNc1ccc(C(=O)OCCN(C)C)cc1.Cl` [TETRACAINE HYDROCHLORIDE], for which the DILI positive/negative is reported as 0. On the same count and under the same terms, under GALLIUM NITRATE HYDRATE stands 0. Consider `COc1cc2c(c3oc(=O)c4c(c13)CCC4=O)[C@@H]1C=CO[C@@H]1O2` [AFLATOXIN], for which the DILI positive/negative was determined as 1.

Molecule FERROUS SULFATE showed a DILI positive/negative of 0. With `CC(=O)c1ccc(S(=O)(=O)NC(=O)NC2CCCCC2)cc1` [ACETOHEXAMIDE], the DILI positive/negative is given as 1.

For the molecule `Cl.Nc1cc(Cl)cc(Cl)c1`, the DILI positive/negative worked out at 0.

Molecule `CC(=O)OCC1=C(C(=O)[O-])N2C(=O)[C@@H](NC(=O)Cc3cccs3)[C@H]2SC1.[Na+]` [CEPHALOTHIN SODIUM] came in with a DILI positive/negative of 1.

Take `C[C@H](CCC(=O)O)[C@H]1CC[C@H]2[C@@H]3[C@H](O)C[C@@H]4C[C@H](O)CC[C@]4(C)[C@H]3CC[C@]12C` [CHENODIOL]: the DILI positive/negative is 1. In the case of `CN1CCN2c3ccccc3Cc3ccccc3C2C1` (configuration not stated) [MIANSERIN], the DILI positive/negative came to 1. `CC(C)(Sc1cc(C(C)(C)C)c(O)c(C(C)(C)C)c1)Sc1cc(C(C)(C)C)c(O)c(C(C)(C)C)c1` [PROBUCOL] registered a DILI positive/negative of 0. `CN1c2ccccc2C(NCCCCCCC(=O)O)c2ccc(Cl)cc2S1(=O)=O` (configuration not stated) [TIANEPTINE] displayed a DILI positive/negative of 1. `C#C[C@]1(O)CC[C@H]2[C@@H]3CCc4cc(O)ccc4[C@H]3CC[C@@]21C` [ETHINYL ESTRADIOL]: the DILI positive/negative was determined as 1. `COCC(=O)O[C@]1(CCN(C)CCCc2nc3ccccc3[nH]2)CCc2cc(F)ccc2[C@@H]1C(C)C` [MIBEFRADIL] returned a DILI positive/negative of 0. `C#C[C@]1(OC(C)=O)CC[C@H]2[C@@H]3CCC4=C[C@@H](OC(C)=O)CC[C@@H]4[C@H]3CC[C@@]21C` [ETHYNODIOL DIACETATE]: the DILI positive/negative came to 1. In turn, `Brc1ccccc1` [BROMOBENZENE] came in with a DILI positive/negative of 1. The same measure, in the same setting: under `C=CCO` [ALLYL ALCOHOL] stands 1; under `CCOc1ccc(NC(C)=O)cc1` [PHENACETIN], 1; under `CO[C@H]1C[C@H](O[C@H]2[C@H](C)[C@@H](O[C@@H]3O[C@H](C)C[C@H](N(C)C)[C@H]3OC(C)=O)[C@@H](C)C[C@@]3(CO3)C(=O)[C@H](C)[C@@H](OC(C)=O)[C@@H](C)[C@@H](C)OC(=O)[C@@H]2C)O[C@@H](C)[C@@H]1OC(C)=O` [TROLEANDOMYCIN], 1.

Consider `COc1ccc2[nH]cc(CCNC(C)=O)c2c1` [MELATONIN], for which the DILI positive/negative is listed as 0. Same read-out and setting: next, `CCOC(=O)C1(c2ccccc2)CCN(CCC(C#N)(c2ccccc2)c2ccccc2)CC1.Cl` [DIPHENOXYLATE HYDROCHLORIDE]: 0; `C[C@H](CCc1ccccc1)NC[C@H](O)c1ccc(O)c(C(N)=O)c1` [DILEVALOL]: 1.

`Cn1nnnc1SCC1=C(C(=O)[O-])N2C(=O)[C@@H](NC(=O)[C@H](O)c3ccccc3)[C@H]2SC1.[Na+]` [CEFAMANDOLE SODIUM]: the DILI positive/negative stood at 1. As for `COC(=O)C1=C(C)NC(C)=C(C(=O)OCC(C)C)C1c1ccccc1[N+](=O)[O-]` (configuration not stated) [NISOLDIPINE], the DILI positive/negative is recorded as 0.

`CN(CCCCCCCCCCN(C)C(=O)Oc1cccc([N+](C)(C)C)c1)C(=O)Oc1cccc([N+](C)(C)C)c1.[Br-].[Br-]` [DEMECARIUM BROMIDE] displayed a DILI positive/negative of 1.

`Nc1ccc(C(=O)[O-])cc1.[K+]` [AMINOBENZOATE POTASSIUM] gave a DILI positive/negative of 0. On to `COc1ccc(CCN2CCC(Nc3nc4ccccc4n3Cc3ccc(F)cc3)CC2)cc1` [ASTEMIZOLE], for which the DILI positive/negative came to 0.

Turning to `CO[C@@]1(NC(=O)C(C(=O)[O-])c2ccc(O)cc2)C(=O)N2C(C(=O)[O-])=C(CSc3nnnn3C)CO[C@@H]21.[Na+].[Na+]` (some centres not stated) [MOXALACTAM DISODIUM], the DILI positive/negative was 0. The molecule `Cl.Cl.O=C(CCN1CCN2CCCC2C1)N1c2ccccc2Sc2ccc(Cl)cc21` (configuration not stated) [AZACLORZINE HYDROCHLORIDE] had a DILI positive/negative of 1. `Cl.O=C(O)CCCCCCNC1c2ccccc2CCc2ccccc21` [AMINEPTINE HYDROCHLORIDE] showed a DILI positive/negative of 1. `O=C1NCN(c2ccccc2)C12CCN(CCCC(c1ccc(F)cc1)c1ccc(F)cc1)CC2` yielded a DILI positive/negative of 1. `CCCCC(CC)COC(=O)C=Cc1ccc(OC)cc1` (configuration not stated) [OCTINOXATE]: the DILI positive/negative came out at 1. Turning to `CN(C)CCC(c1ccc(Br)cc1)c1ccccn1.O=C(O)/C=C\C(=O)O` (configuration not stated) [BROMPHENIRAMINE MALEATE], the DILI positive/negative was 0. Still for that read-out and setting: next, `CC1(COc2ccc(CC3SC(=O)NC3=O)cc2)CCCCC1` (configuration not stated) [CIGLITAZONE]: 1; `CC[N+](C)(C)c1cccc(O)c1.[Cl-]` [EDROPHONIUM CHLORIDE]: 0; `CC1(C)[C@@H](OC(=O)CCC(=O)[O-])CC[C@]2(C)[C@H]3C(=O)C=C4[C@@H]5C[C@@](C)(C(=O)[O-])CC[C@]5(C)CC[C@@]4(C)[C@]3(C)CC[C@@H]12.[Na+].[Na+]` [CARBENOXOLONE SODIUM]: 0. On the same count and under the same terms, under `CC(=O)Nc1ccc2c(c1)Cc1ccccc1-2` [2-ACETYLAMINOFLUORENE] stands 1.

Still in this series, the particulars now being: Liver.
The molecule `O=S(=O)(O)O.Oc1cccc2cccnc12.Oc1cccc2cccnc12` [OXYQUINOLINE SULFATE] had a DILI positive/negative of 1.

As to `C#CC1(O)CC[C@H]2[C@@H]3CCC4=CC(=O)CC[C@@H]4[C@H]3CC[C@@]21CC` (some centres not stated) [NORGESTREL], the DILI positive/negative is listed as 1.

The molecule `Oc1ncc(N(CCCl)CCCl)c(O)n1` [URACIL MUSTARD] showed a DILI positive/negative of 1. Consider `CCN(CC)Cc1cc(Nc2ccnc3cc(Cl)ccc23)ccc1O.Cl.Cl.Cl`, for which the DILI positive/negative is 1. Still for that read-out and setting: next, `Cc1c(F)c(N2CCNC(C)C2)cc2c1c(=O)c(C(=O)O)cn2C1CC1` (configuration not stated) [GREPAFLOXACIN]: 1.

For `Nc1ncn([C@@H]2O[C@H](CO)[C@@H](O)[C@H]2O)c(=O)n1` [AZACITIDINE], the DILI positive/negative came out at 1. The molecule `CC1(C)S[C@@H]2[C@H](NC(=O)[C@H](NC(=O)N3CCN(S(C)(=O)=O)C3=O)c3ccccc3)C(=O)N2[C@H]1C(=O)[O-].[Na+]` [MEZLOCILLIN SODIUM] yielded a DILI positive/negative of 1. `Cl.NCCNCCNCCN` returned a DILI positive/negative of 1.

The values are drawn from ChEMBL document CHEMBL1909294, “Translating clinical findings into knowledge in drug safety evaluation--drug induced liver injury prediction system (DILIps)” (PLoS Comput Biol, 2011).
